Assays:
YES1 kinase = YES1 kinase (Homo sapiens, UniProt P07947); assay: YES1 protein kinase inhibitory activity assay (HTRF); assay type: biochemical; settings: for IC50: HTRF, YES1 kinase, ATP 10 µM
Method: In this experiment, the capability of the compound MRANK-106 of the present disclosure to inhibit kinase activity was assessed by an HTRF method using a drug screening system based on the YES1 kinase.
Table 3-1. Information about reagents and consumables
The enzymatic activity conditions and HTRF system formulation are shown in Table 3-3; the experimental conditions for the kinase activity assay are shown in Table 3-4. Table 3-3. HTRF system formulation
Table 3-4. The experimental conditions for the kinase activity assay
The test compound MRANK-106 was dissolved in DMSO, and the solution was vortexed and shaken for thorough mixing. The solution was serially diluted 3-fold with DMSO, with the initial concentration being 503 nM.
① A 2× ATP/substrate solution and a 2× kinase solution were formulated using a kinase reaction buffer.
② 50 nL of the compound dilution was transferred to a 384 detection plate using Echo 655. After centrifugation, 2.5 µL of a 2× kinase solution was added to the 384 detection plate. The plate was centrifuged at 1000 rpm for 1 min and incubated at 25 °C for 10 min.
② 2.5 µL of the 2× substrate and ATP solution was added to the 384 detection plate, and the plate was centrifuged at 1000 rpm for 1 min and incubated at 25 °C for 60 min.
④ A 2× XL665 and antibody detection reagent was formulated using a detection buffer.
⑤ 5 µL of a kinase detection reagent was added to the detection plate, and the plate was incubated at 25 °C. The plate was centrifuged at 1000 rpm for 1 min and incubated at 25 °C for 1 h.
⑥ The fluorescence signals at 620 nm (Cryptate) and 665 nm (XL665) were read using a BMG high-throughput drug-screening multi-mode microplate reader.
With the reading of the negative control set as an inhibition rate of 0% and the reading of the positive control set as an inhibition rate of 100%, the inhibition rate of each test solution was calculated using the following formula: [formula] • Datapositive control: the average of the positive control well values • Datanegative control : the average of the negative control well values
The IC50 (half maximal inhibitory concentration) of the compound was obtained using the following nonlinear fitting formulas: Y = Bottom + (Top−Bottom)/(1+10^(∧)((LogIC50−X)*HillSlope)) [formula] • X: the log value of the compound concentration • Y: the inhibition rate (% inh) of the compound
The Z' factor calculation equation: Z′ = 1−3(SDmin+SDmax)/(AVEmax−AVEmin) [formula] where: • Min is the positive control Data value, and Max is the negative control DMSO Data value; • SD stands for standard deviation, and AVE stands for average.

A427 cells = assay: Tumor cell proliferation inhibitory activity assay (CCK-8); assay type: cell-based, Human; settings: for IC50: Homo sapiens, A-427, 72 h compound incubation, CCK-8
Method: Human lung cancer A427 cells are cancer cells reported to be sensitive to wee1 inhibitors. In this assay, the anti-cancer effects of the compounds of the present disclosure were verified by assessing the activity of the test substances in inhibiting A427 cell proliferation.
A427 cells were cultured according to the cell culture instructions, and cells in the logarithmic growth phase were collected, counted, resuspended in a complete culture medium, and inoculated into a 96-well plate at a cell concentration of 100 µL/3000 cells/well. The cells were incubated in an incubator at 37 °C with 100% relative humidity and 5% CO2 for 24 h.
The compounds to be tested were dissolved in DMSO and diluted 4-fold with a culture medium from 10 µM to 10 concentration gradients.
The culture medium waste was pipetted off, and 100 µL of the formulated culture medium of the compound to be tested was added to each well. The cells were incubated in an incubator at 37 °C with 100% relative humidity and 5% CO2 for 72 h.
The plate was taken out, the CCK-8 reagent was added at 10 µL/well, and the plate was incubated in an incubator at 37 °C for 2-4 h.
The cell growth inhibition rates of the drugs were calculated using the following formula: Cell growth inhibition rate% = [(Ac−As)/(Ac−Ab)] × 100% [formula] • As: the OA of the samples (cells + CCK-8 + compounds to be tested) • Ac: the OA of the normal growth cell control (cells + CCK-8) • Ab: the OA of the blank control (culture medium + CCK-8)
IC50 curve fitting was performed using the software Graphpad Prism 6 and the calculation formula XY-analysis/Nonlinear regression(curve fit)/Dose response-Inhibition/log(inhibitor)vs. response-Variable slope(four parameters), and the IC50 values were calculated. Table 1. Data analysis and results for some representative compounds

[1] = tested on: A427 human lung cancer cells; assay: In vivo efficacy study against A427 tumors (subcutaneous tumor-bearing model); set-up: species or system BALB/c nude mice; settings: for Relative tumor inhibition rate (%) Day 28 / Relative tumor volume Day 28: PO
From the text: A427 human lung cancer cells were subcultured and expanded in an MEM culture medium containing 10% FBS. BALB/c nude mice aged 6-8 weeks were taken and each subcutaneously injected with 5 × 10^6 cells to establish a tumor-bearing model. The tumor volume was monitored, and when the tumor volume reached about 150 mm^3, the animals were randomized into 5 groups according to body weight and tumor volume. The animals were given, by oral gavage, the vehicle or compounds to be tested (ZN-c3 and IE) once daily for a total of 28 days. During the period of administration, the tumor volume and the animal body weight were measured twice a week, and the animals' states were observed daily. At the endpoint, the animals were euthanized with carbon dioxide, and the subcutaneous tumors were isolated and weighed.
The data calculation formulae are shown below: The tumor volume (TV) was calculated using the formula 1/2×axb^2, where a and b represent the length and width measurements of the tumor, respectively.
The tumor growth inhibition rate (%TGITV) was calculated using the formula (1 - TVT/TVC) × 100%, where TVc represents the average tumor volume of the negative control group, and TVT represents the average tumor volume of the treatment group.
The relative tumor volume (RTV) was calculated using the formula Vt/V0, where V0 represents the tumor volume at the time of grouping, and Vt represents the tumor volume at each measurement.

Sequence of YES1 kinase (P07947 whole entry): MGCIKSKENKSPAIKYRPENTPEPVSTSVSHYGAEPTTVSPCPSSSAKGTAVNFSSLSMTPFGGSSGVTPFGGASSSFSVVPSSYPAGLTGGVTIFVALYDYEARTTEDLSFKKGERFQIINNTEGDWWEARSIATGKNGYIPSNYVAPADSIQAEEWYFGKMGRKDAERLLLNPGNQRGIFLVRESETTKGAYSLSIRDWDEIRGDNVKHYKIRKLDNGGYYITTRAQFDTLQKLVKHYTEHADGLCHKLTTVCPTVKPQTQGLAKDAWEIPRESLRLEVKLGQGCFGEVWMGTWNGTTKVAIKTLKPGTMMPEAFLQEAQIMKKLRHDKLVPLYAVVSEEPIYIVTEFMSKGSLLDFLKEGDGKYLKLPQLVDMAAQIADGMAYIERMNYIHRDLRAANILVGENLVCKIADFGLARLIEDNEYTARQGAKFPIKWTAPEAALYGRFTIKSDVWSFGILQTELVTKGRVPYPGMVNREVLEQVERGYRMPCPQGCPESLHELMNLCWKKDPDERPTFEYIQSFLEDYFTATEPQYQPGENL

Row | SMILES | IC50 (YES1 kinase) | inhibition of the Yes target (in words) (YES1 kinase; summary statement on the assay results) | IC50 (A427 cells) | activity in inhibiting cancer cell proliferation compared with reference compound Debio 0123 or ZN-c3 (A427 cells; comparison in words) | Relative tumor inhibition rate (%) Day 28 ([1]; 30mg/kg, QD×28) | Relative tumor volume Day 28 ([1]; 30mg/kg, QD×28) | Relative tumor inhibition rate (%) Day 28 ([1]; 80/60 mg/kg, QD × 28) | Relative tumor volume Day 28 ([1]; 80/60 mg/kg, QD × 28) | activity in inhibiting tumor growth in the A427 tumor model compared with ZN-c3 ([1]; comparison in words) | Relative tumor inhibition rate (%) Day 28 ([1]; 80mg/kg, QD×28) | Relative tumor volume Day 28 ([1]; 80mg/kg, QD×28)
1 | Cc1cc(Nc2ncc3c(=O)n4n(c3n2)-c2cccc(n2)[C@](C)(O)CCC=CC4)ccc1OC1CCN(C)CC1 (stereo in doubt) [Compound IE, (R,Z)-12-hydroxy-12-methyl-2-((3-methyl-4-((1-methylpiperidin-4-yl)oxy)phenyl)amino)-7,10,11,12-tetrahydro-5H-13,17-(azeno)pyrimido[4',5':3,4]pyrazolo[1,2-a] [1,2]diazacyclotridecin-5-one] | 3.05 nM | strongly inhibited | 13 nM | several times to several dozen times higher | 60.81% | 2.41 | 99.75% | 0.02 | higher activity than the reference molecule ZN-c3 |  | 
2 | C=CCn1c(=O)c2cnc(Nc3ccc(N4CCN(C)CC4)cc3)nc2n1-c1ccc2c(n1)C(O)(CC)CC2 (stereo not drawn) [ZN-c3, reference compound] | > 500 nM |  | 129 nM |  | 16.17% | 5.03 |  |  |  | 48.93% | 3.12

— EP4711366A1, “PYRIMIDO MACROHETEROCYCLIC COMPOUND AS WEE1-YES DUAL-TARGET INHIBITOR AND USE THEREOF” (Mindrank AI Ltd., priority 2023, dated 2024)
